Experimental data: the supplement of paper PMC5579334
± gives the standard deviation of the averaged measurements.

Assays:
S462 [1] = assay: drug sensitivity score (DSS, CellTiter-Glo viability, 72 h) (DSS (dimensionless)); higher = more sensitive; extreme values may be limits of the assay
Procedure, shortened: (§1)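 MPNST cell lines and primary human Schwann cells (750–1000 cells per well) went into 384-well plates preprinted with each compound at five concentrations in 10-fold steps. Plates were incubated 72 h at 37 °C, 5% CO2. Viability was read as CellTiter-Glo ATP luminescence, scaled between vehicle and positive-control wells, with duplicates averaged where present. Percent inhibition is at the top concentration; drug sensitivity score and relative IC50 (censored at top concentration) come from four-parameter logistic fits.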

ST8814 [2] = assay: as above
Procedure, shortened: as §1

[3] = tested on: HSC1 (primary human Schwann cells); assay: as above
Procedure, shortened: as §1

YST-1 [4] = assay: as above
Procedure, shortened: as §1

[5] = tested on: HSC2 (primary human Schwann cells); assay: as above
Procedure, shortened: as §1

STS26T [6] = assay: as above
Procedure, shortened: as §1

HS-PSS [7] = assay: as above
Procedure, shortened: as §1

S1507-2 [8] = assay: as above
Procedure, shortened: as §1

HS-Sch-2 [9] = assay: as above
Procedure, shortened: as §1

S462 [10] = assay: % inhibition of CellTiter-Glo viability at highest tested concentration (72 h), relative to DMSO and benzethonium chloride controls; higher = more inhibition
Procedure, shortened: as §1

ST8814 [11] = assay: as above
Procedure, shortened: as §1

[12] = tested on: HSC1 (primary human Schwann cells); assay: as above
Procedure, shortened: as §1

YST-1 [13] = assay: as above
Procedure, shortened: as §1

[14] = tested on: HSC2 (primary human Schwann cells); assay: as above
Procedure, shortened: as §1

STS26T [15] = assay: as above
Procedure, shortened: as §1

HS-PSS [16] = assay: as above
Procedure, shortened: as §1

S1507-2 [17] = assay: as above
Procedure, shortened: as §1

HS-Sch-2 [18] = assay: as above
Procedure, shortened: as §1

ST8814 [19] = assay: drug sensitivity score (DSS, CellTox-Green cytotoxicity, 72 h) (DSS (dimensionless)); higher = more cytotoxic; extreme values may be limits of the assay
Procedure, shortened: (§2)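 MPNST cell lines and primary human Schwann cells were incubated 72 h at 37 °C in 384-well plates holding five 10-fold compound dilutions. CellTox-Green was added before seeding at a final 1:1000 dilution and reported fluorescence from DNA released by disrupted cells. Signals were scaled to vehicle and positive-control wells, and cultures failing plate quality control were dropped. Drug sensitivity score and relative IC50 come from four-parameter logistic fits, with IC50 censored at the top concentration.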

[20] = tested on: HSC1 (primary human Schwann cells); assay: as above
Procedure, shortened: as §2

[21] = tested on: HSC2 (primary human Schwann cells); assay: as above
Procedure, shortened: as §2

STS26T [22] = assay: as above
Procedure, shortened: as §2

HS-PSS [23] = assay: as above
Procedure, shortened: as §2

S1507-2 [24] = assay: as above
Procedure, shortened: as §2

| Structure (SMILES) | drug sensitivity score (S462 [1]) | drug sensitivity score (ST8814 [2]) | drug sensitivity score [3] | drug sensitivity score (YST-1 [4]) | drug sensitivity score [5] | drug sensitivity score (STS26T [6]) | drug sensitivity score (HS-PSS [7]) | drug sensitivity score (S1507-2 [8]) | drug sensitivity score (HS-Sch-2 [9]) | % inhibition (S462 [10]) | % inhibition (ST8814 [11]) | % inhibition [12] | % inhibition (YST-1 [13]) | % inhibition [14] | % inhibition (STS26T [15]) | % inhibition (HS-PSS [16]) | % inhibition (S1507-2 [17]) | % inhibition (HS-Sch-2 [18]) | drug sensitivity score (ST8814 [19]) | drug sensitivity score [20] | drug sensitivity score [21] | drug sensitivity score (STS26T [22]) | drug sensitivity score (HS-PSS [23]) | drug sensitivity score (S1507-2 [24]) |
| --- | --- | --- | --- | --- | --- | --- | --- | --- | --- | --- | --- | --- | --- | --- | --- | --- | --- | --- | --- | --- | --- | --- | --- | --- |
| CC[C@@H]1C(=O)N(C)c2cnc(Nc3ccc(C(=O)N[C@H]4CC[C@H](N5CCN(CC6CC6)CC5)CC4)cc3OC)nc2N1C(C)C [Volasertib] (max concentration tested 1000 nM) | 21.2 ± 0.31 | 14.4 | 10.6 | 15 | 14.8 | 23.5 | 8.74 | 17.138 ± 0.0087 | 19.5 | 95.95 ± 0.59% | 80.6% | 53% | 55.3% | 79.3% | 78.3% | 59.5% | 79.2 ± 8.9% | 59.3% | 13.9 | 12.8 | 19.2 | 30.8 | 0 | 13.2 ± 1.2 |
| Cc1cnc(Nc2ccc(F)cc2Cl)nc1-c1c[nH]c(C(=O)N[C@H](CO)c2cccc(Cl)c2)c1 [VX-11E] (max concentration tested 2500 nM) | 0.861 ± 0.47 | 3.25 | 3.7 | 0 | 4.46 | 1.5 | 2.39 | 1.62 ± 0.29 | 6.97 | 29.1 ± 8.6% | 67.8% | 64.2% | 6.16% | 71.8% | 34% | 44.5% | 40.7 ± 3% | 71.8% | 5.09 | 2 | 4.5 | 2.55 | 0 | 2.31 ± 3.2 |
| Nc1nc2[nH]cnc2c(=S)[nH]1 [Thioguanine] (max concentration tested 10000 nM) | 7.88 ± 0.29 | 10.7 | 0.0001 | 8.84 | 0 | 10.6 | 7.46 | 4.38 ± 1.2 | 8.53 | 74.5 ± 5.8% | 80.4% | 10.4% | 88.8% | -7.39% | 81% | 76.4% | 60.8 ± 2.1% | 79.2% | 0.689 | 0 | 0 | 4.01 | 0 | 0.992 ± 1.4 |
| Clc1ccc(Nc2nnc(Cc3ccncc3)c3ccccc23)cc1 [Vatalanib] (max concentration tested 10000 nM) | 0 | 0 | 0 | 1.52 | 0.0903 | 0 | 0 | 0 | 1.77 | 5.29 ± 6.4% | 1.01% | 5.92% | 10.3% | 13.4% | 6.33% | 11.8% | 2.66 ± 4.9% | 12.3% | 0 | 0 | 0 | 0 | 0 | 0 |
| COc1ccccc1S(=O)(=O)Nc1ccc2c(c1)CN(C)C(=O)N2 [PFI-1] (max concentration tested 10000 nM) | 4.68 ± 0.9 | 5.94 | 3.78 | 4.93 | 4.03 | 3.53 | 2.11 | 6.21 ± 0.6 | 5.21 | 53.6 ± 4.7% | 63.6% | 62.2% | 56.6% | 53.7% | 39.5% | 48.1% | 69.2 ± 3.9% | 58.4% | 1.77 | 0 | 0 | 0 | 0 | 2.07 ± 1.1 |
| COc1ccc(-c2cc3c(C)nc(N)nc3n([C@H]3CC[C@H](OCCO)CC3)c2=O)cn1 (max concentration tested 10000 nM) | 16.6 ± 2 | 18.8 | 18.3 | 25.6 | 16.7 | 20.5 | 11.7 | 22.5 ± 0.84 | 14.9 | 86.96 ± 0.63% | 99.7% | 92.1% | 101% | 92% | 92.3% | 70.2% | 98.4 ± 1.9% | 97.5% | 6.06 | 2.35 | 2.71 | 4.38 | 0.29 | 6.9 ± 1.9 |
| Nc1ncnc2c1nc(N)n2[C@@H]1O[C@H](CO)[C@@H](O)[C@H]1O [8-amino-adenosine] (max concentration tested 50000 nM) | 20.2 ± 0.77 | 19.6 | 18.1 | 22.8 | 15.6 | 19.9 | 17.9 | 21.3 ± 0.37 | 19.3 | 99.7 ± 0.63% | 98.4% | 98% | 102% | 96.7% | 100% | 101% | 99.405 ± 0.063% | 102% | 14.7 | 4.02 | 4.74 | 16.9 | 3.6 | 12.1 ± 6.4 |
